Measurements reported in patent US20250297244A1, “COMPOSITIONS AND METHODS FOR THE DIAGNOSIS AND TREATMENT OF SEVERE COVID 19 AND OTHER IN[…]” (THE CHILDREN'S HOSPITAL OF PHILADELPHIA, priority 2022, published 2025).
Entries after “also recorded” stand apart in the source; their conditions may differ.

Key:
[1] = biological target: thymidylate synthase (TS) (Homo sapiens, UniProt P04818); settings: in vitro studies; cited from earlier work
[2] = biological target: dihydrofolate reductase (DHFR) (Homo sapiens, UniProt P00374); settings: in vitro studies; cited from earlier work
human CD4+ T cells = assay: proliferation of activated human CD4+ T cells (anti-CD3+anti-CD28 beads, CFSE flow cytometry); format: cell-based; settings: activated in vitro for 72 hours with anti-CD3+anti-CD28 beads
Method: FIG. 13. […] Human CD4+ T cells were activated in vitro for 72 hours using anti-CD3+anti-CD28 beads, and cell division was monitored by flow cytometry using CFSE, and the number of daughter cells generated was determined.

murine Th2 cells = assay: IL-4 production by murine Th2 cells after in vitro activation; format: cell-based; settings: low doses; anti-CD3+anti-CD28 beads for 6 hours
Method: (§1) FIGS. 14A-14B. Dose-dependent effect of lometrexol on IFNg production by murine Th1 cells (FIG. 14A) and IL-4 production by murine Th2 cells (FIG. 14B) following in vitro activation with anti-CD3+anti-CD28 beads for 6 hours.

[3] = system: human tonsillar organoids; assay: in vitro human tonsillar organoid model of T cell-dependent germinal center B cell differentiation; format: cell-based
murine Th1 cells = assay: IFNg production by murine Th1 cells after in vitro activation; format: cell-based; settings: low doses; anti-CD3+anti-CD28 beads for 6 hours
Method: as §1

thymidylate synthase (TS), sequence (P04818 whole entry, species assumed): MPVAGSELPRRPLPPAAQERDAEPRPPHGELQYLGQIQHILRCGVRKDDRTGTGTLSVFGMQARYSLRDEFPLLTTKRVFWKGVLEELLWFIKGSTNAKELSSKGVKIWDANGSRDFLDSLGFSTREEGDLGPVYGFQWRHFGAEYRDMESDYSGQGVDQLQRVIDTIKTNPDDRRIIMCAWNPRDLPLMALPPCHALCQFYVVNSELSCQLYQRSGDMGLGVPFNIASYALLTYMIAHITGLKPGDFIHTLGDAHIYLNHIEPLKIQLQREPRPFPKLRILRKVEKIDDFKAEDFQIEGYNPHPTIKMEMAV
dihydrofolate reductase (DHFR), sequence (P00374 whole entry, species assumed): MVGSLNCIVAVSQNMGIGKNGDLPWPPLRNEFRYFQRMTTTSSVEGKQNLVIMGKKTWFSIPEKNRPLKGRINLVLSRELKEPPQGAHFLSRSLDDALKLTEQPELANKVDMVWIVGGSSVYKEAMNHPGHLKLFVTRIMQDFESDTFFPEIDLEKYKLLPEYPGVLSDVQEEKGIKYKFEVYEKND

SMILES | inhibition of thymidylate synthase (TS) [1] | inhibition of dihydrofolate reductase (DHFR) [2] | proliferation of activated CD4+ T cells (cell division, number of daughter cells) (human CD4+ T cells) | production of IL-4 from Th2 cells (murine Th2 cells) | CD27+CD38+ GCB cell plasmablast differentiation / plasmablast frequency ([3]; day 7 of culture, lometrexol added after 48 hours, three tonsil donors) | B or T cell survival (viability) ([3]; day 7 tonsillar organoids) | TFH frequency ([3]; day 7 tonsillar organoids) | T cell-B cell collaboration (humoral immune response) ([3]; tonsil organoid system) | production of IFNγ from Th1 cells (murine Th1 cells)
Nc1nc2[nH]cc(CCc3ccc(C(=O)N[C@@H](CCC(=O)O)C(=O)O)cc3)c2c(=O)[nH]1 [pemetrexed] | inhibits | inhibits |  |  |  |  |  |  | 
Nc1nc2c(c(=O)[nH]1)C[C@@H](CCc1ccc(C(=O)N[C@@H](CCC(=O)O)C(=O)O)cc1)CN2 [lometrexol] |  |  | can inhibit; also recorded: Dose-dependent inhibition | at low doses enhances | abrogated plasmablast differentiation in a dose-dependent manner; also recorded: Plasmablast frequency diminishment | without affecting | without affecting | blocks | at low doses enhances
